In patent US20100279863A1, “HERBICIDAL COMPOUNDS BASED ON N-AZINYL-N'-PYRIDYLSULFONYLUREAS” (Bayer CropScience AG, priority 2009, published 2010):

Assays:
Format in all cases: in vivo
[1] = system: Redroot pigweed (Amaranthus retroflexus); test: Post-emergence herbicidal activity, AMARE; settings: one-leaf stage, 80 g/ha, scored visually after approximately 3 weeks, 100% = plants have died
Procedure: (§1) Seeds of monocotyledonous or dicotyledonous weed plants or crop plants are placed in sandy loam in wood fiber pots, covered with soil and grown in the greenhouse under good growth conditions. 2 to 3 weeks after sowing, the test plants are treated in the one-leaf stage. The compounds according to the invention, which are formulated as wettable powders (WP), are then sprayed onto the green plant parts in the form of an aqueous suspension or emulsion with a water application rate of 600 l/ha (converted) with addition of 0.2% of wetter. After the test plants have been left to stand in the greenhouse for approximately 3 weeks under optimal growth conditions, the activity of the preparation is scored visually in comparison with untreated controls (herbicidal activity in percent (%): 100% activity=plants have died, 0% activity=like control plants). In the table, the individual crops are abbreviated as follows: • ABUTH: Velvetleaf (Abutilon theophrasti) • ALOMY: Slender meadow foxtail (Alopecurus myosuroides) • AMARE: Redroot pigweed (Amaranthus retroflexus) • CHEAL: Lambs quarters (Chenopodium album) • ECHCG: Barnyard grass (Echinochloa crus-galls) • LOLMU: Italian rye grass (Lolium multiflorum) • MATIN: Scentless camomile (Matricaria inodora) • PHBPU: Purple morning glory (Pharbitis/Ipomoea purpurea) • POLCO: Black bindweed (Polygonum convolvulus) • SETVI: Green bristlegrass (Setaria viridis) • STEME: Chickweed (Stellaria media) • VIOTR: Wild pansy (Viola tricolor) • XANST: Rough cocklebear (Xanthium strumarium)

[2] = system: Barnyard grass (Echinochloa crus-galls); test: Post-emergence herbicidal activity, ECHCG; settings: one-leaf stage, 80 g/ha, scored visually after approximately 3 weeks, 100% = plants have died
Procedure: as §1

[3] = system: Italian rye grass (Lolium multiflorum); test: Post-emergence herbicidal activity, LOLMU; settings: one-leaf stage, 80 g/ha, scored visually after approximately 3 weeks, 100% = plants have died
Procedure: as §1

[4] = system: Chickweed (Stellaria media); test: Post-emergence herbicidal activity, STEME; settings: one-leaf stage, 80 g/ha, scored visually after approximately 3 weeks, 100% = plants have died
Procedure: as §1

[5] = system: Slender meadow foxtail (Alopecurus myosuroides); test: Pre-emergence herbicidal activity, ALOMY; settings: 80 g/ha, scored visually after approximately 3 weeks, 100% = plants have died
From the text: (§2) Seeds of monocotyledonous or dicotyledonous weed plants or crop plants are placed in sandy loam in wood fiber pots and covered with soil. The compounds according to the invention, which are formulated as wettable powders (WP) are then applied to the surface of the soil cover in the form of an aqueous suspension or emulsion with a water application rate of 600 I/ha (converted), with addition of 0.2% wetter. After the treatment, the pots are placed in the greenhouse and maintained under good growth conditions for the test plants. After approximately 3 weeks, the activity of the preparation is scored visually in comparison with untreated controls (herbicidal activity in percent (%): 100% activity=plants have died, 0% activity=like control plants). In the table, the individual crops are abbreviated as follows: • ALOMY: Slender meadow foxtail (Alopecurus myosuroides) • AMARE: Redroot pigweed (Amaranthus retroflexus) • CHEAL: Lambs quarters (Chenopodium album) • DIGSA: Hairy crab grass (Digitaria sanguinalis) • ECHCG: Barnyard grass (Echinochloa crus-galls) • LOLMU: Italian rye grass (Lolium multiflorum) • MATIN: Scentless camomile (Matricaria inodora) • PHBPU: Purple morning glory (Pharbitis/Ipomoea purpurea) • SETVI: Green bristlegrass (Setaria viridis) • SINAL: White mustard (Sinapis alba) • STEME: Chickweed (Stellaria media) • VIOTR: Wild pansy (Viola tricolor)

[6] = system: Redroot pigweed (Amaranthus retroflexus); test: Pre-emergence herbicidal activity, AMARE; settings: 80 g/ha, scored visually after approximately 3 weeks, 100% = plants have died
From the text: as §2

[7] = system: Lambs quarters (Chenopodium album); test: Pre-emergence herbicidal activity, CHEAL; settings: 80 g/ha, scored visually after approximately 3 weeks, 100% = plants have died
From the text: as §2

[8] = system: Hairy crab grass (Digitaria sanguinalis); test: Pre-emergence herbicidal activity, DIGSA; settings: 80 g/ha, scored visually after approximately 3 weeks, 100% = plants have died
From the text: as §2

[9] = system: Barnyard grass (Echinochloa crus-galls); test: Pre-emergence herbicidal activity, ECHCG; settings: 80 g/ha, scored visually after approximately 3 weeks, 100% = plants have died
From the text: as §2

[10] = system: Italian rye grass (Lolium multiflorum); test: Pre-emergence herbicidal activity, LOLMU; settings: 80 g/ha, scored visually after approximately 3 weeks, 100% = plants have died
From the text: as §2

[11] = system: Scentless camomile (Matricaria inodora); test: Pre-emergence herbicidal activity, MATIN; settings: 80 g/ha, scored visually after approximately 3 weeks, 100% = plants have died
From the text: as §2

[12] = system: Purple morning glory (Pharbitis/Ipomoea purpurea); test: Pre-emergence herbicidal activity, PHBPU; settings: 80 g/ha, scored visually after approximately 3 weeks, 100% = plants have died
From the text: as §2

[13] = system: Green bristlegrass (Setaria viridis); test: Pre-emergence herbicidal activity, SETVI; settings: 80 g/ha, scored visually after approximately 3 weeks, 100% = plants have died
From the text: as §2

[14] = system: White mustard (Sinapis alba); test: Pre-emergence herbicidal activity, SINAL; settings: 80 g/ha, scored visually after approximately 3 weeks, 100% = plants have died
From the text: as §2

[15] = system: Chickweed (Stellaria media); test: Pre-emergence herbicidal activity, STEME; settings: 80 g/ha, scored visually after approximately 3 weeks, 100% = plants have died
From the text: as §2

[16] = system: Wild pansy (Viola tricolor); test: Pre-emergence herbicidal activity, VIOTR; settings: 80 g/ha, scored visually after approximately 3 weeks, 100% = plants have died
From the text: as §2

[17] = system: Velvetleaf (Abutilon theophrasti); test: Post-emergence herbicidal activity, ABUTH; settings: one-leaf stage, 80 g/ha, scored visually after approximately 3 weeks, 100% = plants have died
Procedure: as §1

[18] = system: Slender meadow foxtail (Alopecurus myosuroides); test: Post-emergence herbicidal activity, ALOMY; settings: one-leaf stage, 80 g/ha, scored visually after approximately 3 weeks, 100% = plants have died
Procedure: as §1

[19] = system: Lambs quarters (Chenopodium album); test: Post-emergence herbicidal activity, CHEAL; settings: one-leaf stage, 80 g/ha, scored visually after approximately 3 weeks, 100% = plants have died
Procedure: as §1

[20] = system: Scentless camomile (Matricaria inodora); test: Post-emergence herbicidal activity, MATIN; settings: one-leaf stage, 80 g/ha, scored visually after approximately 3 weeks, 100% = plants have died
Procedure: as §1

[21] = system: Purple morning glory (Pharbitis/Ipomoea purpurea); test: Post-emergence herbicidal activity, PHBPU; settings: one-leaf stage, 80 g/ha, scored visually after approximately 3 weeks, 100% = plants have died
Procedure: as §1

[22] = system: Black bindweed (Polygonum convolvulus); test: Post-emergence herbicidal activity, POLCO; settings: one-leaf stage, 80 g/ha, scored visually after approximately 3 weeks, 100% = plants have died
Procedure: as §1

[23] = system: Green bristlegrass (Setaria viridis); test: Post-emergence herbicidal activity, SETVI; settings: one-leaf stage, 80 g/ha, scored visually after approximately 3 weeks, 100% = plants have died
Procedure: as §1

[24] = system: Wild pansy (Viola tricolor); test: Post-emergence herbicidal activity, VIOTR; settings: one-leaf stage, 80 g/ha, scored visually after approximately 3 weeks, 100% = plants have died
Procedure: as §1

[25] = system: Rough cocklebear (Xanthium strumarium); test: Post-emergence herbicidal activity, XANST; settings: one-leaf stage, 80 g/ha, scored visually after approximately 3 weeks, 100% = plants have died
Procedure: as §1

| SMILES | herbicidal activity in percent, AMARE [1] [%] | herbicidal activity in percent, ECHCG [2] [%] | herbicidal activity in percent, LOLMU [3] [%] | herbicidal activity in percent, STEME [4] [%] | herbicidal activity in percent, ALOMY [5] [%] | herbicidal activity in percent, AMARE [6] [%] | herbicidal activity in percent, ECHCG [9] [%] | herbicidal activity in percent, LOLMU [10] [%] | herbicidal activity in percent, SETVI [13] [%] | herbicidal activity in percent, STEME [15] [%] | herbicidal activity in percent, VIOTR [16] [%] | herbicidal activity in percent, ABUTH [17] [%] | herbicidal activity in percent, ALOMY [18] [%] | herbicidal activity in percent, CHEAL [19] [%] | herbicidal activity in percent, MATIN [20] [%] | herbicidal activity in percent, PHBPU [21] [%] | herbicidal activity in percent, POLCO [22] [%] | herbicidal activity in percent, SETVI [23] [%] | herbicidal activity in percent, VIOTR [24] [%] | herbicidal activity in percent, XANST [25] [%] | further results |
| --- | --- | --- | --- | --- | --- | --- | --- | --- | --- | --- | --- | --- | --- | --- | --- | --- | --- | --- | --- | --- | --- |
| CN(C)c1nc(NC(=O)NS(=O)(=O)c2cnccc2C2=NOCCO2)nc(OCC(F)(F)F)n1 [Ia-8] | 80 | 80 | 80 | 80 |  |  |  |  |  |  |  |  |  |  |  |  |  |  |  |  |  |
| COc1cc(OC)nc(NC(=O)NS(=O)(=O)c2cnccc2C2=NOCCO2)n1 [Ia-2, 4-(5,6-Dihydro-1,4,2-dioxazin-3-yl)-N-[(4,6-dimethoxypyrimidin-2-yl)carbamoyl]pyridine-3-sulfonamide] | 100 | 90 | 95 | 95 | 90 | 90 | 90 | 90 | 100 | 90 | 90 | 90 | 90 | 80 | 90 | 90 | 90 | 95 | 90 | 100 | herbicidal activity in percent, CHEAL [7]: 100%; herbicidal activity in percent, DIGSA [8]: 80%; herbicidal activity in percent, MATIN [11]: 90%; herbicidal activity in percent, PHBPU [12]: 80%; herbicidal activity in percent, SINAL [14]: 100% |
| COc1cc(C)nc(NC(=O)NS(=O)(=O)c2cnccc2C2=NOCCO2)n1 [Ia-9] | 100 | 90 | 90 | 90 | 90 | 90 | 80 | 90 | 90 | 90 | 90 | 90 | 90 | 90 | 100 | 100 | 90 | 80 | 90 | 100 | herbicidal activity in percent, CHEAL [7]: 90%; herbicidal activity in percent, DIGSA [8]: 90%; herbicidal activity in percent, MATIN [11]: 90%; herbicidal activity in percent, PHBPU [12]: 90% |
| COc1cc(OC)nc(NC(=O)NS(=O)(=O)c2cccnc2C2=NOCCO2)n1 [Ic-1] | 95 | 90 | 85 | 90 | 90 | 90 | 90 | 85 | 85 | 90 | 80 | 80 | 80 | 80 | 90 | 90 | 90 | 85 | 90 | 90 | herbicidal activity in percent, DIGSA [8]: 80%; herbicidal activity in percent, SINAL [14]: 90% |
| Cc1cc(C)nc(NC(=O)NS(=O)(=O)c2cnccc2C2=NOCCO2)n1 [Ia-3] | 95 | 95 | 85 | 85 | 90 | 85 | 80 | 85 | 90 | 80 | 80 | 90 | 90 | 80 | 100 | 100 | 80 | 80 | 80 | 90 | herbicidal activity in percent, CHEAL [7]: 90%; herbicidal activity in percent, MATIN [11]: 90%; herbicidal activity in percent, PHBPU [12]: 90%; herbicidal activity in percent, SINAL [14]: 90% |
